This assay deals with T1, human GPR40 (Homo sapiens, UniProt O14842).
T1 construct: expressed in transfected cells; host or cells: CHO-K1
In words: Induction of Ca2+ (calcium flux assay) using human GPR40 expression cell line. Format: cell-based. To be noted: read-out: EC0.5. Here is the method:
Evaluation of the Test Compounds for Induction of Ca^2+ Using Human GPR40 Expression Cell Line
The cell line expressing human GPR40 was generated by transfection of the GPR40 expression vector into CHO-K1 cell, and used in the following calcium flux assay.
The cell line was cultured in cell-culture medium (F-12 (Invitrogen) supplemented with 10% (v/v) FBS (Fetal Bovine Serum; Invitrogen), 0.5 mg/ml Geneticin (Invitrogen) and 1% (v/v) Antibiotic-Antimycotic solution (Invitrogen)) under the condition of 5% CO2 and 37° C. For calcium flux assay, the cells were diluted with the cell-culture medium to a concentration of 5×10^5 cells/ml, and the diluted cell suspension was dispensed in amount of 100 μl/well to a 96-well transparent bottom black polystyrene cell culture plate (Corning) and then cultured for 24 hours. The following concentrations of test compounds were added to these cells, and then the changes in intracellular calcium concentration were measured by FlexStation II384 (Molecular Devices). The following solution was prepared before the measurement.
First, a buffer solution for assay was prepared for use in the manufacture of fluorescent dye solution. This buffer solution was prepared by adding 1M HEPES solution (Invitrogen) to HBSS (Hanks' Balanced Salt Solution) (Invitrogen) and then adding 1M NaOH (Nacalai Tesque) to adjust pH to 7.4. Then the fluorescent dye solution was prepared according to the manufacturer's instruction attached to Calcium 5 Assay Kit (Molecular Devices), and the final DMSO concentration was adjusted to 2%.
The fluorescent dye solution was added in an amount of 100 μl/well to supernatant of the cell culture plate cultured for 24 hours. The plate was cultured for 1 hour under the condition of 5% CO2 and 37° C. so that the fluorescent dye was inserted into the cell.
Test compounds (i.e., the compounds prepared in the Examples) dissolved in dimethyl sulfoxide (DMSO ACROS) were diluted 200-fold in the buffer solution for assay to prepare compound solutions corresponding to the respective concentrations. […] 50 μl of the prepared sample solutions was added to each well of 96-well polypropylene plates (NUNC), and thereby a compound plate was prepared. Finally, the compound plate and the cell culture plate cultured for 1 hour with the fluorescent dye were placed in FlexStation II384.
After the above pre-treatment, the change in the intracellular calcium concentration when each concentration of the test compound solutions was added at 50 μl was measured by FlexStation II^384.
Then, the relative activity values depending on the concentration of the compound were plotted using Prism 4 software (GraphPad) to calculate the EC0.5 value.

Molecules are shown by their SMILES.

T1 sequence (O14842 whole entry): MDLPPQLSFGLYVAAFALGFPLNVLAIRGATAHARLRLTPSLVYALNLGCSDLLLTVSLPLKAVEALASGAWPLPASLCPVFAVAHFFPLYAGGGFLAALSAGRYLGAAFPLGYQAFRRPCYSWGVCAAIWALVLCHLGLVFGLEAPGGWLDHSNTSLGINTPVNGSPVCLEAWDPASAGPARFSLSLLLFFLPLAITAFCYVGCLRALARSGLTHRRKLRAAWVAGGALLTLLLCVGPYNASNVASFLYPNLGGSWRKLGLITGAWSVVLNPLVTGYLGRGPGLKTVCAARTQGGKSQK

As to `CC#C[C@@H](CC(=O)O)c1ccc(OCc2ccc3ccn(Cc4ccncn4)c3c2C)cc1` [Example 61, (S)-3-[4-(7-methyl-1-pyrimidin-4-ylmethyl-1H-indol-6-ylmethoxy)-phenyl]-hex-4-ynoic acid], the EC50 fell in the range of 1 to 50 nM.
Next, `CC#C[C@@H](CC(=O)O)c1ccc(OCc2ccc3c(F)cn(Cc4ccccc4)c3c2C)cc1` [Example 62, (S)-3-[4-(1-benzyl-3-fluoro-7-methyl-1H-indol-6-ylmethoxy)-phenyl]-hex-4-ynoic acid]: 50 to 500 nM; `CC#C[C@@H](CC(=O)O)c1ccc(OCc2ccc3ccn(Cc4cnn(C)c4)c3c2C)cc1` [Example 63, (S)-3-{4-[7-methyl-1-(1-methyl-1H-pyrazol-4-ylmethyl)-1H-indol-6-ylmethoxy)-phenyl]-hex-4-ynoic acid]: 1 to 50 nM.
For `CC#C[C@@H](CC(=O)O)c1ccc(OCc2ccc3ccn(Cc4ncccn4)c3c2C)cc1` [Example 64, (S)-3-[4-(7-methyl-1-pyrimidin-2-ylmethyl-1H-indol-6-ylmethoxy)-phenyl]-hex-4-ynoic acid], the EC50 lay in the range of 50 to 500 nM.
Next, `O=C(O)CC(C1=NOCC1)c1ccc(OCc2ccc3cnn(Cc4ccccc4)c3c2)cc1` (stereo not shown) [Example 65, 3-[4-(1-benzyl-1H-indazol-6-ylmethoxy)-phenyl]-3-(4,5-dihydro-isoxazol-3-yl)-propanoic acid]: 50 nM.
Next, `CC#C[C@@H](CC(=O)O)c1ccc(OCc2ccc3cnn(Cc4ccc(F)cc4)c3c2)cc1` [Example 66, (S)-3-{4-[1-(4-fluoro-benzyl)-1H-indazol-6-ylmethoxy]-phenyl}-hex-4-ynoic acid]: 10 nM; `CC#C[C@@H](CC(=O)O)c1ccc(OCc2ccc3cn(Cc4ccc(F)cc4)nc3c2)cc1` [Example 67, (S)-3-{4-[2-(4-fluoro-benzyl)-2H-indazol-6-ylmethoxy]-phenyl}-hex-4-ynoic acid]: 70 nM; `CC#C[C@@H](CC(=O)O)c1ccc(OCc2ccc3cnn(Cc4ncccn4)c3c2)cc1` [Example 68, (S)-3-[4-(1-pyrimidin-2-ylmethyl-1H-indazol-6-ylmethoxy)-phenyl}-hex-4-ynoic acid]: 50 to 500 nM.
Take `CC#C[C@@H](CC(=O)O)c1ccc(OCc2ccc3cn(Cc4ncccn4)nc3c2)cc1` [Example 69, (S)-3-[4-(2-pyrimidin-2-ylmethyl-2H-indazol-6-ylmethoxy]-phenyl}-hex-4-ynoic acid]: the EC50 was not below 500 nM.
Next, `CC#C[C@@H](CC(=O)O)c1ccc(OCc2ccc3cnn(Cc4cnccn4)c3c2)cc1` [Example 70, (S)-3-[4-(1-pyrazin-2-ylmethyl-1H-indazol-6-ylmethoxy]-phenyl}-hex-4-ynoic acid]: 50 to 500 nM; `CC#C[C@@H](CC(=O)O)c1ccc(OCc2cccc3c2cnn3Cc2ccc(F)cc2)cc1` [Example 71, (S)-3-{4-[1-(4-fluoro-benzyl)-1H-indazol-4-ylmethoxy]-phenyl}-hex-4-ynoic acid]: 20 nM; `CC#C[C@@H](CC(=O)O)c1ccc(OCc2cccc3nn(Cc4ccc(F)cc4)cc23)cc1` [Example 72, (S)-3-{4-[2-(4-fluoro-benzyl)-2H-indazol-4-ylmethoxy]-phenyl}-hex-4-ynoic acid]: 30 nM.
The result for `CC#C[C@@H](CC(=O)O)c1ccc(OCc2ccc3cnn(Cc4cnc(C)cn4)c3c2)cc1` [Example 73, (S)-3-{4-[1-(5-methyl-pyrazin-2-ylmethyl)-1H-indazol-6-ylmethoxy]-phenyl}-hex-4-ynoic acid] reads 50 to 500 nM; that for `CC#C[C@@H](CC(=O)O)c1ccc(OCc2ccc3cn(Cc4cnc(C)cn4)nc3c2)cc1` [Example 74, (S)-3-{4-[2-(5-methyl-pyrazin-2-ylmethyl)-2H-indazol-6-ylmethoxy]-phenyl}-hex-4-ynoic acid], not below 500 nM.
`CC#C[C@@H](CC(=O)O)c1ccc(OCc2ccc3cnn(Cc4ccncn4)c3c2)cc1` [Example 75, (S)-3-[4-(1-pyrimidin-4-ylmethyl-1H-indazol-6-ylmethoxy)-phenyl]-hex-4-ynoic acid]: the EC50 is 50 to 500 nM.
Regarding `CC#C[C@@H](CC(=O)O)c1ccc(OCc2ccc3cn(Cc4ccncn4)nc3c2)cc1` [Example 76, (S)-3-[4-(2-pyrimidin-4-ylmethyl-2H-indazol-6-ylmethoxy]-phenyl}-hex-4-ynoic acid], the EC50 was not below 500 nM.
`CC#C[C@@H](CC(=O)O)c1ccc(OCc2cccc3nn(Cc4cnc(C)cn4)cc23)cc1` [Example 78, (S)-3-{4-[2-(5-methyl-pyrazin-2-ylmethyl)-2H-indazol-4-ylmethoxy]-phenyl}-hex-4-ynoic acid]: the EC50 lay within 50 to 500 nM.
Next, `CC#C[C@@H](CC(=O)O)c1ccc(OCc2ccc3cnn(Cc4cccnc4)c3c2)cc1` [Example 79, (S)-3-[4-(1-pyridin-3-ylmethyl-1H-indazol-6-ylmethoxy)-phenyl]-hex-4-ynoic acid]: 1 to 50 nM; `CC#C[C@@H](CC(=O)O)c1ccc(OCc2ccc3cn(Cc4cccnc4)nc3c2)cc1` [Example 80, (S)-3-[4-(2-pyridin-3-ylmethyl-2H-indazol-6-ylmethoxy)-phenyl]-hex-4-ynoic acid]: not below 500 nM; `CC#C[C@@H](CC(=O)O)c1ccc(OCc2ccc3ccn(Cc4ccc(C)nc4)c3c2C)cc1` [Example 81, (S)-3-{4-[7-methyl-1-(6-methyl-pyridin-3-ylmethyl)-1H-indol-6-ylmethoxy]-phenyl}-hex-4-ynoic acid]: 1 to 50 nM.
In the case of `CC#C[C@@H](CC(=O)O)c1ccc(OCc2ccc3cnn(Cc4cnn(C)c4)c3c2)cc1` [Example 82, (S)-3-{4-[1-(1-methyl-1H-pyrazol-4-ylmethyl)-1H-indazol-6-ylmethoxy]-phenyl}-hex-4-ynoic acid], the EC50 lay within 50 to 500 nM.
The result for `Cc1c(COc2ccc([C@H](CC(=O)O)c3ccon3)cc2)ccc2ccn(Cc3ccccc3)c12` [Example 83, (S)-3-[4-(1-benzyl-7-methyl-1H-indol-6-ylmethoxy)-phenyl]-3-isoxazol-3-yl-propanoic acid] reads 10 nM.
The result for `Cc1c(COc2ccc([C@H](CC(=O)O)c3ccon3)cc2)ccc2ccn(Cc3ccc(F)cc3)c12` [Example 84, (S)-3-{4-[1-(4-fluoro-benzyl)-7-methyl-1H-indol-6-ylmethoxy]-phenyl}-3-isoxazol-3-yl-propanoic acid] reads 50 nM.
Regarding `O=C(O)C[C@@H](c1ccc(OCc2ccc3cnn(Cc4ccccc4)c3c2)cc1)c1ccon1` [Example 85, (S)-3-[4-(1-benzyl-1H-indazol-6-ylmethoxy)-phenyl]-3-isoxazol-3-yl-propanoic acid], the EC50 was determined as 10 nM.
The result for `O=C(O)C[C@@H](c1ccc(OCc2ccc3cnn(Cc4ccc(F)cc4)c3c2)cc1)c1ccon1` [Example 86, (S)-3-{4-[1-(4-fluoro-benzyl)-1H-indazol-6-ylmethoxy]-phenyl}-3-isoxazol-3-yl-propanoic acid] reads 10 nM.
For the compound `CC(C)Cn1ncc2ccc(COc3ccc([C@H](CC(=O)O)c4ccon4)cc3)cc21` [Example 87, (S)-3-[4-(1-isobutyl-1H-indazol-6-ylmethoxy)-phenyl]-3-isoxazol-3-yl-propanoic acid], the EC50 worked out at 10 nM.
Next, `CC(C)Cn1cc2ccc(COc3ccc([C@H](CC(=O)O)c4ccon4)cc3)cc2n1` [Example 88, (S)-3-[4-(2-isobutyl-2H-indazol-6-ylmethoxy)-phenyl]-3-isoxazol-3-yl-propanoic acid]: 400 nM; `Cc1c(COc2ccc([C@H](CC(=O)O)c3ccon3)cc2)ccc2ccn(Cc3cnccn3)c12` [Example 89, (S)-3-isoxazol-3-yl-3-[4-(7-methyl-1-pyrazin-2-ylmethyl-1H-indol-6-ylmethoxy)-phenyl]-propanoic acid]: 30 nM.
For `CC#C[C@@H](CC(=O)O)c1ccc(OCc2ccc3ccn(Cc4ccccc4)c3n2)cc1` [Example 90, (S)-3-[4-(1-benzyl-1H-pyrrolo[2,3-b]pyridin-6-ylmethoxy)-phenyl]-hex-4-ynoic acid], the EC50 was 10 nM.
For the compound `O=C(O)C[C@@H](c1ccc(OCc2ccc3ccn(Cc4ccccc4)c3n2)cc1)c1ccon1` [Example 91, (S)-3-[4-(1-benzyl-1H-pyrrolo[2,3-b]pyridin-6-ylmethoxy)-phenyl]-3-isoxazol-3-yl-propanoic acid], the EC50 worked out at 30 nM.
For the compound `Cc1cnc(Cn2ccc3ccc(COc4ccc([C@H](CC(=O)O)c5ccon5)cc4)c(C)c32)cn1` [Example 92, (S)-3-isoxazol-3-yl-3-{4-[7-methyl-1-(5-methyl-pyrazin-2-ylmethyl)-1H-indol-6-ylmethoxy]-phenyl}-propanoic acid], the EC50 is 1 to 50 nM.

For the origin of these results see patent US9988379B2, “GPR40 receptor agonist, methods of preparing the same, and pharmaceutical compositions containing the same as an active agent” (LG CHEM, LTD., priority 2012, dated 2018).
